Here are results for 15 compounds from US9107946B2, “Drug combinations comprising a DGAT inhibitor and a PPAR-agonist” (Janssen Pharmaceutica NV, priority 2008, dated 2015).

One data set deals with T1, human DGAT1 (Homo sapiens, UniProt O75907).
T1 construct: FLAG (N); made in house; host or cells: SF9 insect cells (pFastBac / baculovirus); total cell membranes
T1 sequence (O75907 1-488): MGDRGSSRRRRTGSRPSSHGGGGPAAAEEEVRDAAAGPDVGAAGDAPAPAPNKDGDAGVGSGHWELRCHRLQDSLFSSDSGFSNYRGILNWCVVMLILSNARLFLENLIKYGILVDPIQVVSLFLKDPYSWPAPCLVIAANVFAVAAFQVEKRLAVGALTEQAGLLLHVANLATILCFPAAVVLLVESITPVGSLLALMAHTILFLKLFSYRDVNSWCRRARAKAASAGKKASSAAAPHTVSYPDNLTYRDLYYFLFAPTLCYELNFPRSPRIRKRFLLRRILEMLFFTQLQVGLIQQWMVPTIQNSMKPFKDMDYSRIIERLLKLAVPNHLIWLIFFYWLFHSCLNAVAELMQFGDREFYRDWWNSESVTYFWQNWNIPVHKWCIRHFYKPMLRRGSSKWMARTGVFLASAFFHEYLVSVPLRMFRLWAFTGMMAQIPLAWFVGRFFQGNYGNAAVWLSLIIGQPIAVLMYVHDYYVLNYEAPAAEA
As to the kind of experiment: DGAT1 FlashPlate assay: inhibition of DGAT1 activity in membrane preparations. The data set is classed as biochemical. Conditions: human DGAT1 membranes from SF9 cells, [3H]-oleoylCoA, 120 min at 37° C.; for IC50: read-out: pIC50 (-logIC50, 50% inhibition of DGAT1 activity) (converted). An excerpt: The inhibiting activity of compounds of Class A, Class B, Class C and Class D on DGAT1 activity was screened in a single well procedure assay using DGAT1 comprising membrane preparations and DGAT1 substrate comprising micelles and determining formed radio-active triacylglycerol coming in close proximity of a flashplate surface by radioluminescence.
Said assay is described in full detail in WO2006/067071, the content of which is incorporated herein by reference.
By DGAT1 activity is meant the transfer of coenzyme A activated fatty acids to the 3-position of 1,2-diacylglycerols, thus forming a triglyceride molecule, by enzyme DGAT1.
human DGAT1 (NM012079.2) was cloned into the pFastBac vector, containing translation start, a FLAG-tag at the N-terminus as described in literature and a viral Kozak sequence (AAX) preceding the ATG to improve expression in insect cells. Expression was done as described in literature (Cases, S., Smith, S. J., Zheng, Y., Myers H. M., Lear, S. R., Sande, E., Novak, S., Collins, C., Welch, C. B., Lusis, A. J., Erickson, S. K. and Farese, R. V. (1998) Proc. Natl. Acad. Sci. USA 95, 13018-13023.) using SF9 cells.
72h transfected SF9 cells were collected by centrifugation (13000 rpm-15 min-4° C.) and lysed in 2×500 ml lysisbuffer (0.1M Sucrose, 50 mM KCl, 40 mM KH2PO4, 30 mM EDTA pH 7.2. Cells were homogenized by cell disruptor. After centrifugation 1380 rpm-15 min-4° C. (SN discarded), pellet was resuspended in 500 ml lysisbuffer and total cell membranes collected by ultracentrifugation at 34000 rpm(100 000 g) for 60 min (4° C.). The collected membranes were resuspended in lysis buffer, divided in aliquots and stored with 10% glycerol at −80° C. until use.
• a) 1,2-dioleoyl-sn-glycerol, 10 mg/ml (1,2-diacylglycerol (DAG)) Dissolve in acetonitrile; evaporate the acetonitrile solution under nitrogen and reconstitute in chloroform at a final concentration of 10 mg/ml. • b) L-α-phosphatidylcholine, 1 mg/ml (phosphatidylcholine (PC)) • Dissolve in chloroform at a final concentration of 1 mg/ml and store at 4° C. • c) L-α-phosphatidyl-L-serine, 1 mg/ml (phophatidylserine (PS)) • Dissolve in chloroform at a final concentration of 1 mg/ml and store at 4° C. Method
Add 1 ml dioleoyl-sn-glycerol (10 mg/ml) to 10 ml of L-α-phosphatidylcholine (1 mg/ml) and 10 ml of L-α-phosphatidyl-L-serine (1 mg/ml) in a thick glass recipient. Evaporate under nitrogen and put on ice for 15 min Reconstitute in 10 ml Tris/HCl (10 mM, pH 7.4) by sonication on ice. The sonification process includes sonification cycles of 10 seconds in the sonification bath followed by 10 seconds cool down on ice and repeating this sonification cycle till a homogeneous solution is obtained (takes about 15 min). The thus obtained micelles are stored at −20° C. till later use and contain DAG at a final concentration of 1.61 mM.
• a) Assaybuffer • 50 mM Tris-HCl (pH 7.4), 150 mM MgCl2, 1 mM EDTA, 0.2% BSA. • b) N-ethylmaleimide, 5M • Dissolve 5 g into a final volume of 8 ml DMSO 100% and store at −20° C. in aliquots till later use. • c) Substrate mix (for 1 384 well plate=3840 μl) • 612 μl micelles stock (51 μM final) • 16.6 μl oleoylCoA 9.7 mM • 23 μl [^3H]-oleoylCoA (49 Ci/mmol, 500 μCi/ml) • 3188.4 μl Tris pH 7.4, 10 mM • d) Enzyme mix (for 1 384 well plate=3520 μl) (5 μg/ml) • Add 11.73 μl of DGAT membrane stock (1500 μg/ml stock) to 3508 μl assay buffer. • e) Stop mix (for 1 384 well plate=7.68 ml) (250 mM) • Add 384 μl of N-ethylmaleimide (5M) to 3.456 ml DMSO 100%, and further dilute 3.84 ml of said solution with 3.84 ml DMSO 10%. Method
DGAT activity in membrane preparations was assayed in 50 mM Tris-HCl (pH 7.4), 150 mM MgCl2, 1 mM EDTA and 0.2% BSA, containing 50 μM DAG, 32 μg/ml PC/PS and 8.4 μM [^3H]-oleoylCoA (at a specific activity of 30 nCi/well) in a final volume of 50 μl in 384-well format using the red shifted Basic Image FlashPlate™ (Perkin Elmer Cat.No. SMP400). […]

Compound `CS(=O)(=O)N1CCN(Cc2cc(Cl)c(CC(=O)N3CCN(c4ccc(C(=O)NCc5cccc(N6CCCC6)c5)cc4)CC3)c(Cl)c2)CC1` [363-Class D, 4-[4-[[2,6-dichloro-4-[[4-(methylsulfonyl)-1-piperazinyl]methyl]phenyl]acetyl]-1-piperazinyl]-N-[[3-(1-pyrrolidinyl)phenyl]methyl]-benzamide] registered a melting point of 241 to 243 °C. In addition, the IC50 at human DGAT1 was 0.0115 µM. For `COc1ccc(CC(=O)Nc2ccc(N3CCN(C(=O)Cc4ccc(CN5CCCC5)cc4Cl)CC3)cc2)cc1` [355-Class D, N-[4-[4-[[2-chloro-4-(1-pyrrolidinylmethyl)phenyl]acetyl]-1-piperazinyl]phenyl]-4-methoxy-benzeneacetamide] the same measures were 153.3 to 155.2 °C and 0.912 µM. For `CC(=O)N1CCN(Cc2cc(Cl)c(CC(=O)N3CCN(c4ccc(C(=O)Nc5cccc(N6CCCC6)c5)cc4)CC3)c(Cl)c2)CC1` [149-Class C, 4-[4-[[4-[(4-acetyl-1-piperazinyl)methyl]-2,6-dichlorophenyl]acetyl]-1-piperazinyl]-N-[3-(1-pyrrolidinyl)phenyl]-benzamide] the same measures were 250 to 252 °C and 0.00617 µM.

In turn, `O=C(Nc1cccc(N2CCCC2)c1)c1ccc(N2CCN(C(=O)Cc3c(Cl)cc(CN4CCCC4)cc3Cl)CC2)cc1` [147-Class C, 4-[4-[[2,6-dichloro-4-(1-pyrrolidinylmethyl)phenyl]acetyl]-1-piperazinyl]-N-[3-(1-pyrrolidinyl)phenyl]-benzamide] yielded a melting point of 262 to 263 °C. The IC50 at human DGAT1 is 0.0389 µM.

As to `O=C(NCc1cccc(N2CCCC2)c1)c1ccc(N2CCN(C(=O)C(O)c3ccc(CN4CCCC4)cc3Cl)CC2)cc1` (centres unmarked) [356-Class D, 4-[4-[[2-chloro-4-(1-pyrrolidinylmethyl)phenyl]hydroxyacetyl]-1-piperazinyl]-N-[[3-(1-pyrrolidinyl)phenyl]methyl]-benzamide], the melting point lay within 134.4 to 137 °C. The IC50 at human DGAT1 is 0.0741 µM. Consider `COc1ccc(CC(=O)Nc2ccc(N3CCN(C(=O)Cc4c(Cl)cc(CN5CCCC5)cc4Cl)CC3)cc2)cc1` [351-Class D, N-[4-[4-[[2,6-dichloro-4-(1-pyrrolidinylmethyl)phenyl]acetyl]-1-piperazinyl]phenyl]-4-methoxy-benzeneacetamide], for which, on human DGAT1, the “pIC50 (-logIC50, 50% inhibition of DGAT1 activity)” value is 6.62.

`CCN1CCN(Cc2cc(Cl)c(CC(=O)N3CCN(c4ccc(C(=O)NCc5cccc(N6CCCC6)c5)cc4)CC3)c(Cl)c2)CC1` [359-Class D, 4-[4-[[2,6-dichloro-4-[(4-ethyl-1-piperazinyl)methyl]phenyl]acetyl]-1-piperazinyl]-N-[[3-(1-pyrrolidinyl)phenyl]methyl]-benzamide] registered a melting point of 240 to 241 °C. At human DGAT1, the IC50 is 0.0282 µM. For `COc1cc(CNC(=O)c2ccc(N3CCN(C(=O)Cc4c(Cl)cc(CN5CCN(S(C)(=O)=O)CC5)cc4Cl)CC3)cc2)cc(OC)c1` [364-Class D, 4-[4-[[2,6-dichloro-4-[[4-(methylsulfonyl)-1-piperazinyl]methyl]phenyl]acetyl]-1-piperazinyl]-N-[(3,5-dimethoxyphenyl)methyl]-benzamide] the same measures were 152 to 154 °C and 0.00575 µM. As for `COc1ccc(CC(=O)Nc2ccc(N3CCN(C(=O)C(O)c4ccc(CN5CCCC5)cc4Cl)CC3)cc2)cc1` (centres unmarked) [352-Class D, N-[4-[4-[[2-chloro-4-(1-pyrrolidinylmethyl)phenyl]hydroxyacetyl]-1-piperazinyl]phenyl]-4-methoxy-benzeneacetamide], the “pIC50 (-logIC50, 50% inhibition of DGAT1 activity)” value on human DGAT1 is reported as 6.45. The compound `CCN1CCN(Cc2cc(Cl)c(CC(=O)N3CCN(c4ccc(C(=O)NCc5cc(OC)cc(OC)c5)cc4)CC3)c(Cl)c2)CC1` [360-Class D, 4-[4-[[2,6-dichloro-4-[(4-ethyl-1-piperazinyl)methyl]phenyl]acetyl]-1-piperazinyl]-N-[(3,5-dimethoxyphenyl)methyl]-benzamide] registered a melting point of 159 to 160 °C. Besides, the IC50 at human DGAT1 was 0.00759 µM. Taken in the same sequence, the figures for `O=C(NCc1cccc(N2CCCC2)c1)c1ccc(N2CCN(C(=O)Cc3ccc(CN4CCCC4)cc3Cl)CC2)cc1` [354-Class D, 4-[4-[[2-chloro-4-(1-pyrrolidinylmethyl)phenyl]acetyl]-1-piperazinyl]-N-[[3-(1-pyrrolidinyl)phenyl]methyl]-benzamide] were 206.3 to 209.4 °C and 0.646 µM. Regarding `CS(=O)(=O)N1CCN(Cc2cc(Cl)c(CC(=O)N3CCN(c4ccc(C(=O)Nc5cccc(N6CCCC6)c5)cc4)CC3)c(Cl)c2)CC1` [150-Class C, 4-[4-[[2,6-dichloro-4-[[4-(methylsulfonyl)-1-piperazinyl]methyl]phenyl]acetyl]-1-piperazinyl]-N-[3-(1-pyrrolidinyl)phenyl]-benzamide], the melting point lay within 240 to 242 °C. Moreover, on human DGAT1, the IC50 is 0.00603 µM. Taken in the same sequence, the figures for `COc1cc(CNC(=O)c2ccc(N3CCN(C(=O)Cc4c(Cl)cc(CN5CCN(C(C)=O)CC5)cc4Cl)CC3)cc2)cc(OC)c1` [362-Class D, 4-[4-[[4-[(4-acetyl-1-piperazinyl)methyl]-2,6-dichlorophenyl]acetyl]-1-piperazinyl]-N-[(3,5-dimethoxyphenyl)methyl]-benzamide] were 123 to 126 °C and 0.00912 µM. Turning to `COc1cc(CNC(=O)c2ccc(N3CCN(C(=O)C(O)c4ccc(CN5CCCC5)cc4Cl)CC3)cc2)cc(OC)c1` (centres unmarked) [357-Class D, 4-[4-[[2-chloro-4-(1-pyrrolidinylmethyl)phenyl]hydroxyacetyl]-1-piperazinyl]-N-[(3,5-dimethoxyphenyl)methyl]-benzamide], the IC50 on human DGAT1 is 0.055 µM. As for `O=C(NCc1cccc(N2CCCC2)c1)c1ccc(N2CCN(C(=O)Cc3c(Cl)cc(CN4CCCC4)cc3Cl)CC2)cc1` [267-Class D, 4-[4-[[2,6-dichloro-4-(1-pyrrolidinylmethyl)phenyl]acetyl]-1-piperazinyl]-N-[[3-(1-pyrrolidinyl)phenyl]methyl]-benzamide], at human DGAT1, the “pIC50 (-logIC50, 50% inhibition of DGAT1 activity)” value worked out at 6.97.

One may read the melting point as the temperature of the solid-liquid transition.
